A short description of data set [1]: Stability in human liver microsomes assessed as parent compound remaining at 0.5 uM after 10 mins by LC-MS analysis. On the technique in general: Liver microsomes are a subcellular fraction often used to study metabolism.
The target of data set [2] is T1, C-X-C chemokine receptor type 4 (Homo sapiens, UniProt P61073). Put plainly: Agonist activity at CXCR4 in human CCRF-CEM cells measured for 90 secs by calcium flux assay. The format is functional, cell-based. A general note: A change in cytosolic calcium serves as a functional read-out for many receptors and channels.
Data set [3] deals with T1, C-X-C chemokine receptor type 4. Put plainly: Antagonist activity at CXCR4 in human CCRF-CEM cells assessed as inhibition of […]-induced calcium flux pretreated for 25 mins followed by […] addition measured for 90 secs by calcium-dye based assay. Type of data set: functional, cell-based.
For data set [4], the target named is Muscarinic acetylcholine receptor. In words: Antagonist activity at mAChR in human CCRF-CEM cells assessed as inhibition of acetylcholine-induced calcium flux pretreated for 25 mins followed by acetylcholine addition measured for 90 secs by calcium-dye based assay. The format is functional, cell-based.
A short description of data set [5]: Stability in rat liver microsomes assessed as parent compound remaining at 0.5 uM after 10 mins by LC-MS analysis.
The nature of data set [6]: Stability in mouse liver microsomes assessed as parent compound remaining at 0.5 uM after 10 mins by LC-MS analysis.
Data set [7] deals with Cytochrome P450 3A4 (Homo sapiens, UniProt P08684). In words: Inhibition of CYP3A4 (unknown origin). The format is ADME.
Data set [8] concerns the target Cytochrome P450 2D6 (Homo sapiens, UniProt P10635).
Description: Inhibition of recombinant human CYP2D6 expressed in insect cell microsomes using AMMC as substrate pretreated for 30 mins followed by NADPH addition measured after 45 mins by fluorescence assay
A short description of data set [9]: in vitro. The following applies: PAMPA, pH 7.4.
Description: Permeability of the compound at pH 7.4 after 4 hrs by PAMPA

Calls of active or inactive are those of the source. The rule behind the calls is not given here.

T1 sequence (P61073 whole entry): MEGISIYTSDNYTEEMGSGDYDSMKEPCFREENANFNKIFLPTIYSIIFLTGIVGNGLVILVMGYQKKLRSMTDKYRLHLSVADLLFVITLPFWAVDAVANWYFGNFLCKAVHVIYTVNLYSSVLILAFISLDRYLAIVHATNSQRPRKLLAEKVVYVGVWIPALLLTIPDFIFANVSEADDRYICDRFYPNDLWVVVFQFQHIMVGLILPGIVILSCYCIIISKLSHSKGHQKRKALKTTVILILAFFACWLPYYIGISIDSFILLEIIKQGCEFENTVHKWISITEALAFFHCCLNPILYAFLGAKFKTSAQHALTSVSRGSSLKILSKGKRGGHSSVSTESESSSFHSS
Sequence of Cytochrome P450 3A4 (P08684 whole entry): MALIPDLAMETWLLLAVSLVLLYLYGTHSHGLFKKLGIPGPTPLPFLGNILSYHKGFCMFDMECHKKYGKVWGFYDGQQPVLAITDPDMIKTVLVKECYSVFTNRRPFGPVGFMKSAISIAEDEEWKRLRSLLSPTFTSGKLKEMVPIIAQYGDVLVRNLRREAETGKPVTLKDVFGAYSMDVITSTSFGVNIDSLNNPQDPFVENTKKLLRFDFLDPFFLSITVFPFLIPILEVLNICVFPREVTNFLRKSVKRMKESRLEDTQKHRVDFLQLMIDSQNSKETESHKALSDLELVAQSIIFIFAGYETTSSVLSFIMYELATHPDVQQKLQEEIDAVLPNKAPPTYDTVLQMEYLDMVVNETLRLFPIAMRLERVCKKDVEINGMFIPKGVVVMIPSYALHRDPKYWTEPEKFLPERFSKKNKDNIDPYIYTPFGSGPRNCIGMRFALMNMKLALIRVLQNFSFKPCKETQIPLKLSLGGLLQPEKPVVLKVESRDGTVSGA
Sequence of Cytochrome P450 2D6 (P10635 whole entry): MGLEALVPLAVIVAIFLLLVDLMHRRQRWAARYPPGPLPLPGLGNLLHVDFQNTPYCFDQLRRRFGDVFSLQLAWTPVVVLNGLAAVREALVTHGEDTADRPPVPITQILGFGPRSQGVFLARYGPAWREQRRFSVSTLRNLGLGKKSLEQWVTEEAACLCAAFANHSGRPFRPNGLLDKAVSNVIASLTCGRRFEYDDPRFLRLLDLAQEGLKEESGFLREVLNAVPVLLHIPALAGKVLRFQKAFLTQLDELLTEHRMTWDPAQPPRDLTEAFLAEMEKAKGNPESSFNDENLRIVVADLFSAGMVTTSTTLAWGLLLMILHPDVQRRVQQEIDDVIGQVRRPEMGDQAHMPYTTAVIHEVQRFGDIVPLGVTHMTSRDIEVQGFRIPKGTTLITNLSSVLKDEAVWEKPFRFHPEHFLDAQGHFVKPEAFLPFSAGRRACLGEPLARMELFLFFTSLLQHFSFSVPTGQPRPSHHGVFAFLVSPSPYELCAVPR

For the compound `c1cnc2c(c1)CN[C@H](CN(CCCN1CCNCC1)[C@H]1CCCc3cccnc31)C2`, the figures for the amount remaining at 10 min, 0.5 µM in [1], in data set [5] and in data set [6] were 100%, 87% and 63%, respectively. Besides, in data set [2], the outcome was inactive. In addition, the IC50 in [3] was 2.64 µM; in [4] it was more than 17 µM; in [7] it was more than 20 µM; in [8], more than 20 µM.

As for `c1cnc2c(c1)CCC[C@@H]2N(CCCN1CCNCC1)Cc1cc2ccccc2cn1`, the amount remaining at 10 min, 0.5 µM in data set [1] amounted to 66%; in data set [5] it was 59%; in [6] it was 74%. Also, the result in data set [2] was inactive. Moreover, the IC50 in data set [3] is 0.017 µM; in data set [4], 3.2 µM; in data set [7] it was more than 20 µM; in [8], 2.96 µM. In data set [9], this compound registered a Papp at 4 h of 243 nm/s.

Consider `c1ccc2c(c1)CN[C@@H](CN(CCC1CCNCC1)[C@H]1CCCc3cccnc31)C2`, for which the fraction remaining at 10 min, 0.5 µM turned out to be 66% in [1], 17% in data set [5] and 32% in data set [6]. Besides, the outcome in [2] was inactive. Further, the IC50 in data set [3] was 0.15 µM; in [4], more than 14 µM; in [7], more than 12 µM; in data set [8], 1.04 µM. For the same compound, the Papp at 4 h in [9] was found to be 19 nm/s.

Consider `c1ccc2c(c1)CN[C@H](CN(CCCN1CCNCC1)[C@H]1CCCc3cccnc31)C2`, for which the share remaining at 10 min, 0.5 µM in [1] is 99%; in data set [5], 88%; in [6], 88%. Further, the outcome in data set [2] was inactive. In addition, the IC50 was 1.15 µM in data set [3], more than 17 µM in data set [4], more than 20 µM in data set [7] and 1.4 µM in [8]. In data set [9], this compound returned a Papp at 4 h of 16 nm/s.

With `c1cnc2c(c1)CCC[C@@H]2N(CCCN1CCNCC1)Cc1nc2ccccc2[nH]1`, the values for the fraction remaining at 10 min, 0.5 µM in data set [1], in data set [5] and in data set [6] were 63%, 29% and 68%, respectively. For the same compound, the result in [2] was inactive. For the same compound, the IC50 in [4] is more than 17 µM; in [7], 12.7 µM; in data set [8], more than 20 µM. The compound further came in with a Papp at 4 h in data set [9] of 146 nm/s.

In the case of `NCCCCN(Cc1nc2ccccc2[nH]1)[C@H]1CCCc2cccnc21` [MAVORIXAFOR], the result in data set [2] was inactive. In addition, in [4], the IC50 is more than 17 µM.

Consider `c1ccc2c(c1)CN[C@@H](CN(CCCCN1CCNCC1)[C@H]1CCCc3cccnc31)C2`, for which the fraction remaining at 10 min, 0.5 µM in data set [1] is 82%; in data set [5], 15%; in data set [6] it was 96%. Also, in data set [2], the outcome was inactive. Also, the 50% inhibitory concentration (IC50) is 0.066 µM in data set [3], more than 14 µM in data set [4], more than 12 µM in data set [7] and 1.43 µM in data set [8]. The compound further gave an apparent permeability (Papp) at 4 h in data set [9] of 14 nm/s.

On to `CCN1CCN(CCCN(C[C@H]2Cc3ccccc3CN2)[C@H]2CCCc3cccnc32)CC1`, for which the fraction remaining at 10 min, 0.5 µM came out at 59% in [1], 1% in [5] and 19% in data set [6]. The result in data set [2] was inactive. Also, the IC50 is 0.033 µM in [3], more than 17 µM in data set [4], more than 20 µM in data set [7] and more than 20 µM in data set [8]. The compound further yielded an apparent permeability (Papp) at 4 h in data set [9] of 317 nm/s.

`CN1CCN(CCCN(CC2Cc3ccccc3CN2C)[C@H]2CCCc3cccnc32)CC1` (single isomer, unassigned): the values for the share remaining at 10 min, 0.5 µM in data set [1], in [5] and in [6] were 60%, 2% and 43%, respectively. The outcome in [2] was inactive. The IC50 in data set [3] was 0.536 µM; in [4], more than 17 µM; in data set [7] it was more than 20 µM; in [8], 5.14 µM. In data set [9], the Papp at 4 h was 513 nm/s.

On to `c1cnc2c(c1)CCC[C@@H]2N(CCCN1CCNCC1)Cc1nc2ccccc2s1`, for which the share remaining at 10 min, 0.5 µM in data set [1] is 50%; in data set [5], 21%; in [6], 45%. The result in data set [2] was inactive. In addition, the figures for the IC50 in data set [4], in data set [7] and in data set [8] were more than 17 µM, 9.4 µM and more than 20 µM, respectively.

As for `CN1CCN(CCCN(C[C@H]2Cc3ccccc3CN2)[C@H]2CCCc3cccnc32)CC1`, the amount remaining at 10 min, 0.5 µM in data set [1] turned out to be 72%; in [5] it was 10%; in data set [6] it was 53%. The result in [2] was inactive. For the same compound, the IC50 was 0.125 µM in data set [3], 6.56 µM in data set [4], more than 20 µM in data set [7] and 5.6 µM in [8]. The compound also registered a Papp at 4 h in data set [9] of 360 nm/s.

As to `c1ccc2c(c1)CN[C@@H](CN(CC[C@@H]1CCCNC1)[C@H]1CCCc3cccnc31)C2`, the fraction remaining at 10 min, 0.5 µM worked out at 75% in data set [1], 28% in data set [5] and 23% in data set [6]. Further, the outcome in data set [2] was inactive. Further, the IC50 in data set [3] was 0.161 µM; in data set [4], more than 14 µM; in data set [7], more than 12 µM; in [8] it was 0.03 µM.

Take `c1cnc2c(c1)CN[C@@H](CN(CCCN1CCNCC1)[C@H]1CCCc3cccnc31)C2`: the fraction remaining at 10 min, 0.5 µM in data set [1] came to 79%; in data set [5], 79%; in [6], 78%. Besides, the outcome in data set [2] was inactive. The IC50 was 0.171 µM in data set [3], more than 17 µM in data set [4], more than 20 µM in [7] and more than 20 µM in data set [8]. For the same compound, the Papp at 4 h in data set [9] was found to be 9 nm/s.

Take `NC(=O)N1CCN(CCCN(C[C@H]2Cc3ccccc3CN2)[C@H]2CCCc3cccnc32)CC1`: the share remaining at 10 min, 0.5 µM worked out at 79% in [1], 4% in data set [5] and 42% in data set [6]. In addition, in data set [2], the outcome was inactive. The IC50 in data set [3] was 0.959 µM; in [4] it was 4.98 µM; in [7], more than 20 µM; in data set [8], 4.14 µM. The compound also registered an apparent permeability (Papp) at 4 h in data set [9] of 67 nm/s.

Consider `c1ccc2c(c1)CN[C@@H](CN(CC1CCNCC1)[C@H]1CCCc3cccnc31)C2`, for which the fraction remaining at 10 min, 0.5 µM in data set [1] stood at 86%; in data set [5] it was 65%; in data set [6], 13%. The result in data set [2] was inactive. The IC50 in data set [3] is 0.065 µM; in data set [4], more than 14 µM; in data set [7] it was more than 12 µM; in [8], 1.87 µM.

`c1cnc(CN(CCCN2CCNCC2)[C@H]2CCCc3cccnc32)nc1`: the fraction remaining at 10 min, 0.5 µM stood at 100% in data set [1], 68% in data set [5] and 78% in data set [6]. Also, the outcome in data set [2] was inactive. Further, the concentration for half-maximal inhibition (IC50) in data set [4] is more than 17 µM; in data set [7], more than 20 µM; in data set [8], more than 20 µM. In data set [9], this compound returned a Papp at 4 h of 31 nm/s.

As a reminder, the share remaining is what is left of the initial amount, in per cent. As a reminder, the IC50 is the midpoint of a concentration-inhibition curve. One may read the Papp as the rate of passage across a membrane or cell layer, normalised by area and donor concentration. Low values mean slow passage, high ones fast passage.

The record behind these values is ChEMBL document CHEMBL4145594, “Discovery of N-Alkyl Piperazine Side Chain Based CXCR4 Antagonists with Improved Drug-like Properties” (ACS Med Chem Lett, 2018).
